# Results as given in patent publication US20110104167A1, “Compositions and Methods for Diagnosing and Treating Insulin Resistance” (YEDA RESEARCH AND DEVELOPMENT CO. LTD., priority 2004, published 2011).
# Experiments:
# insulin receptor = conditions: Fao cells, 10^−7M insulin, prolonged; cited from earlier work
# S408 of IRS-1 = experiment: In vivo phosphorylation of S408 of IRS-1 in cultured Fao cells; format: cell-based, rat; conditions: 100 nM insulin
# Method: Following 48 hours, the cells were starved for 16 hours. The medium was removed and the cells were incubated with or without 100 nM insulin for the indicated times (FIG. 10a). Alternatively, the cells were incubated with insulin, SMase or calyculin A as indicated (FIG. 10b). Cytosolic extracts (100 μg) were resolved on 7.5% SDS-PAGE and immunoblotted with anti-phospho-Ser 408 antibody or anti-PY antibodies as indicated.
# Infection of Fao cells with adenovirus—Fao cells were grown in RPMI medium containing 10% FCS. At 70% confluence cells were infected with adenoviruses harboring the gene of interest at a titer of 7 10^7 PFU/ml. After incubation for 2 h hours at 37° C., the virus-containing medium was diluted 1:5 in fresh RPMI medium. After 24 h the medium was replaced with a fresh RPMI medium containing 10% FCS. 48 h post-infection the Fao cells were starved in serum-free RPMI for 16 h and were then subjected to the indicated treatments as described below.
# Treatment of cells and preparation of extracts—Virally-infected Fao cells were grown as described above. Nave Rat hepatoma (Fao) cells or CHO cells were grown in RPMI medium supplemented with 10% fetal calf serum as described (22). At 70-80% confluence, cells were deprived of serum for 16 h prior to each experiment, and were then incubated with inducers of insulin resistance and/or insulin. […]
# CHO-T cells = experiment: Insulin-induced Tyr phosphorylation of IRS-1 in stably transfected CHO-T cells; format: cell-based, Chinese Hamster
# Method: FIGS. 1a-c show Tyrosine (Tyr) phosphorylation of IRS-1^7A and its interactions with IR. FIG. 1a—monolayers of CHO-T cells stably overexpressing either WT-IRS-1 (CHO-T^WT) or IRS-1^7A (CHO-T^7A) at 80% confluence (grown in 6 cm plates) were deprived of serum for 16 h prior to the experiment. The cells were then incubated with insulin for the indicated times at 37° C. Cells extracts (100 μg) were resolved on 7.5 SDS-PAGE and immunoblotted with the indicated antibodies. The results are of a representative of six experiments. FIG. 1b—IRS-1 was isolated from CHO-T^WT or CHO-T^7A cells. In vitro phosphorylation of IRS-1^WT and IRS-1^7A by Insulin receptor (IR) was effected as described under “Materials and Experimental Procedures” section of the Examples section which follows. The reaction mixture was subjected to immunoprecipitation with anti-IRS-1 antibodies. Immunocomplexes were resolved on 7.5 SDS-PAGE and immunoblotted with anti-phosphotyrosine (pY) or anti IRS-1 antibodies. FIG. 1c—CHO-T^WT (expressing wild type IRS-1) and CHO-T^7A (expressing the 7A IRS-1 mutant) cells were deprived of serum for 16 h prior to the experiment. The cells were stimulated with 100 nM insulin for the indicated times at 37° C. Cell extracts were prepared and samples (1 mg) were bound to immobilized IR. […]
# Myc-PH/PTB-L = target: T1, Myc-PH/PTB-L (Mus musculus, UniProt P35569); experiment: In vitro dephosphorylation of Myc-PH/PTB-L with calf intestine alkaline phosphatase; format: biochemical; conditions: 3 units CIP, 37° C., 1 h
# T1 construct: Myc-tagged truncated IRS-1 (aa 1-430, PH/PTB-L); expressed in transfected cells; host or cells: CHO-T cells, transient transfection with pcDNA3-Myc-PH/PTB (1-1290 nt)
# T1 sequence (P35569 1-430): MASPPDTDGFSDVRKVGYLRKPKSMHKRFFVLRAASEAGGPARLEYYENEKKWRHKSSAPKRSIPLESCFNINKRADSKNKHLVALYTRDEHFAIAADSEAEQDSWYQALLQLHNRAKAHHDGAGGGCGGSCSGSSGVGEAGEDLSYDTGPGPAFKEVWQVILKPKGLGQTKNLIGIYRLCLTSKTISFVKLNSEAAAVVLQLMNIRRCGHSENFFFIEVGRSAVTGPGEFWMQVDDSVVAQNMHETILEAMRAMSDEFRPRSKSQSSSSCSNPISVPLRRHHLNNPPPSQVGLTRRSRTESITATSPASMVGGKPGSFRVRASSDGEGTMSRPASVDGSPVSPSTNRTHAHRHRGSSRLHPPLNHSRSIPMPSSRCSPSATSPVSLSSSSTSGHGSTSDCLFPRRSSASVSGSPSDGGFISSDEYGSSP
# Method: FIGS. 7a-c show In vivo phosphorylation of PH/PTB-L in response to insulin. CHO-T cells were transiently transfected with pcDNA3-Myc-PH/PTB (1-1290 nt) or with an insert-free plasmid (control). Twenty-four hours post-transfection, the cells were deprived of serum for 16 h and were then treated with insulin for the indicated time periods. Cell extracts (100 μg) were resolved on 10% SDS-PAGE and immunoblotted with anti-pY or anti-Myc antibodies (FIG. 7a). In parallel, samples (100 μg, 40 μl) were incubated with 3 units (U) of calf intestine phosphatase (CIP) at 37° C. for 1 h. The samples were resolved on 10% SDS-PAGE and immunoblotted with anti-Myc antibodies (FIG. 7b). The results are of a representative of two experiments. FIG. 7c—CHO^PH/PTB-L cells were starved in serum-free F12 medium for 16 h. The cells were treated for 30 min with the indicated inhibitors prior to being treated with 100 nM insulin for 30 min. Cell extracts were prepared, samples were resolved on 10% SDS-PAGE and were immunoblotted with anti-Myc antibodies. Results are of a representative of three experiments.
Molecule,reduction in ability of IRS-1 to interact with the insulin receptor (insulin receptor) [%],incubation time required for maximal phosphorylation of Ser408 (S408 of IRS-1) [min],insulin treatment time at which maximal Tyr phosphorylation of IRS-1 was detected (CHO-T cells) [min],effect on mobility shift of PH/PTB-L from insulin-treated cells (Myc-PH/PTB-L)
insulin: human insulin used as stimulus,> 40,30 to 60,2,–
"CIP: calf intestine alkaline phosphatase (protein, UniProt P19111 20-506, looked up) Intestinal-type alkaline …: LVPVEEEDPAFWNRQAAQALDVAKKLQPIQTAAKNVILFLGDGMGVPTVTATRILKGQMNGKLGPETPLAMDQFPYVALSKTYNVDRQVPDSAGTATAYLCGVKGNYRTIGVSAAARYNQCKTTRGNEVTSVMNRAKKAGKSVGVVTTTRVQHASPAGAYAHTVNRNWYSDADLPADAQMNGCQDIAAQLVNNMDIDVILGGGRKYMFPVGTPDPEYPDDASVNGVRKRKQNLVQAWQAKHQGAQYVWNRTALLQAADDSSVTHLMGLFEPADMKYNVQQDHTKDPTLQEMTEVALRVVSRNPRGFYLFVEGGRIDHGHHDDKAYMALTEAGMFDNAIAKANELTSELDTLILVTADHSHVFSFGGYTLRGTSIFGLAPSKALDSKSYTSILYGNGPGYALGGGSRPDVNDSTSEDPSYQQQAAVPQASETHGGEDVAVFARGPQAHLVHGVEEETFVAHIMAFAGCVEPYTDCNLPAPTTATSIPD",–,–,–,abolished the mobility shift
